The values that follow come from ChEMBL document CHEMBL1201862, “PubChem BioAssay data set” (2004).

For orientation: EC50 means the concentration needed to bring the measured effect to its halfway point. Usually AC50 stands for the concentration giving half of the maximal activity seen. The term Ki denotes the dissociation constant of the complex between target and ligand, obtained from inhibition or displacement.

Assay [1] concerns the target T1, High affinity choline transporter 1 (Homo sapiens, UniProt Q9GZV3).
T1 sequence (Q9GZV3 whole entry): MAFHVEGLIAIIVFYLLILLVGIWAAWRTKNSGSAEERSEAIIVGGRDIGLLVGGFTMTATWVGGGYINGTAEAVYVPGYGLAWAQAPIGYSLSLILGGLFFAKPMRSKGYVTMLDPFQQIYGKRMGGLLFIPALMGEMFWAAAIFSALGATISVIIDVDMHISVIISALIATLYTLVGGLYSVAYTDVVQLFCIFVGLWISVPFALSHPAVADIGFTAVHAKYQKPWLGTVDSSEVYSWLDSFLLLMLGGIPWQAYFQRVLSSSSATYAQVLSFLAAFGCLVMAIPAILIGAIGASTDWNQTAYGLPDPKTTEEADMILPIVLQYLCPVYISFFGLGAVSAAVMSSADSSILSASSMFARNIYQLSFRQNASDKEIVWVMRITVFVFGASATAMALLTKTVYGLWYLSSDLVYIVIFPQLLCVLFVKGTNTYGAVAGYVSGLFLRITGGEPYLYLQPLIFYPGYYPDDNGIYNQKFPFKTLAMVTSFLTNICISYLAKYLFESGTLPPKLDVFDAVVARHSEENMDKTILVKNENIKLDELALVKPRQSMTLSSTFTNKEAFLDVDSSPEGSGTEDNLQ
The experiment in a line: human choline transporter potentiators, potency – cell-based, 10-point CRC, membrane potential dye, dose response (AID 602376). It is filed as functional.

In assay [2] the target is DNA dC->dU-editing enzyme APOBEC-3A (Homo sapiens, UniProt P31941). The experiment in a line: SAR analysis of small molecule inhibitors of APOBEC3A DNA Deaminase via a fluorescence-based single-stranded DNA deaminase assay - Set 2. It is filed as functional. The note with it: read-out: IC50_Mean.
The target in assay [3] is DNA dC->dU-editing enzyme APOBEC-3G (Homo sapiens, UniProt Q9HC16). The experiment in a line: SAR analysis of small molecule inhibitors of APOBEC3G DNA Deaminase via a fluorescence-based single-stranded DNA deaminase assay - Set 2. It is filed as functional. The note with it: read-out: IC50_Mean.
Assay [4] has as its system INS1. The experiment in a line: INS-1E survival protection against cytokine death – cell-based, luminescence, retest, dose response (AID 449756).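 Note: cell death triggered by IL-1 beta plus TNF-alpha plus IFN-gamma mixture; protective hits raise ATP signal compared with cytokine alone wells.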 It counts as functional. Conditions: Rattus norvegicus.
The test system of assay [5] is BJ. The experiment in a line: BJ-TERT-LT-ST fibroblast viability loss – cell-based, RAS-independent, luminescence, dose response (AID 1935).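 Note: BJ fibroblasts immortalized with TERT plus LT and ST oncogenes.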 It counts as functional. The note with it: Homo sapiens.
The nature of assay [6]: viability loss in HEK293 cells – cell-based, plate reader, cherry-picked samples, cytotoxicity control, dose response (AID 743446). It counts as functional.
The nature of assay [7]: toxicity toward HepG2 liver cells – cell-based, plate reader, cherry-pick, antagonist series, cytotoxicity control, dose response (AID 743416). It is filed as functional.
The nature of assay [8]: blockers of bursicon-stimulated LGR2 cAMP reporter – cell-based, HEK293, CRE-luciferase reporter, cherry pick, set 2, dose response (AID 743343).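 Note: transfected cells were stimulated with diluted bursicon conditioned medium after compound addition.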 It is filed as functional. In general terms: Reporter assays use an easily measured gene product as a stand-in for the process of interest.
The target of assay [9] is T2, Luciferin 4-monooxygenase (Photinus pyralis, UniProt P08659). The experiment in a line: inhibition of purified Photinus pyralis luciferase – biochemical, dry powder samples, plate reader, dose response (AID 588451).
The test system of assay [10] is BJ. The experiment in a line: cells. The note with it: Homo sapiens. It is filed as functional, cell-based.
Assay [11] can be described thus: loss of viability in HepG2 cells – cell-based, CellTiter-Glo, cherry-picked, cytotoxicity control for Shn3 inhibitor project, dose response (AID 624134). It is filed as functional. (In general: Cellular ATP, detected with luciferase, serves as a proxy for viable cell number.)
Assay [12] has as its system H4. The experiment in a line: Inhibitors of Prion Protein 5' UTR mRNA Measured in Cell-Based System Using Plate Reader - 2078-01_Inhibitor_Dose_DryPowder_Activity. [Related pubchem assays (depositor defined):AID488894]. It counts as functional. The note with it: Homo sapiens.
The test system of assay [13] is BJ. The experiment in a line: BJ-TERT fibroblast viability loss – cell-based, RAS-independent, luminescence, dose response (AID 1933). The note with it: Homo sapiens. It is filed as functional.
Assay [14] in a line: blockers of HIV-1 envelope-mediated cell-cell fusion – cherry-pick, dose response (AID 652057). It counts as functional, cell-based.
Assay [15] relates to H4. The experiment in a line: inhibitors of control reporter signal in H4 cells – cell-based, plate reader, dry powder samples, counter-screen for prion reporter project, dose response (AID 540255). It counts as functional. Conditions: Homo sapiens. On the technique in general: A counterscreen serves to expose hits that act by an unwanted route or on another target.
Assay [16] can be described thus: HIV-1 AD8 envelope cell-cell fusion blockers – cherry-pick, dose response (AID 652062).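 Note: luciferase signal from cell-cell fusion driven by HIV-1 clade B AD8 Env; potency is for inhibitors of fusion seen as a drop in luminescence.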 It counts as functional, cell-based.
For assay [17], the target named is T2, Luciferin 4-monooxygenase. The experiment in a line: inhibition of purified Photinus pyralis luciferase – biochemical, luminescence, dose response (AID 1891).
Assay [18] is described as follows: viability loss in CEM21 cells – cell-based, CellTiter-Glo luminescence, cherry-picked, cytotoxicity control for viral fusion inhibitor project, dose response (AID 652042).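 Note: potency for signal decrease meaning cytotoxicity.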 It counts as functional.
A short description of assay [19]: blockers of HIV-1 ZM109 envelope-driven cell-cell fusion – HeLa effector, CEM target cells, luciferase, cherry-pick, dose response (AID 652058).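 Note: luciferase signal from HIV-1 Env mediated cell-cell fusion of effector and target cells.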 It counts as functional, cell-based.
Assay [20] relates to BJ. The experiment in a line: growth inhibition of engineered Ras-driven BJ cells – cell-based, alamar blue fluorescence, cherrypicked samples, dose response (AID 2631).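 Note: confirmatory dose-response assay in RAS-dependent BJ fibroblasts engineered with TERT, LT and ST, with cytotoxicity read by fluorescence.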 It is filed as functional. The note with it: Homo sapiens.
Assay [21] has as its target Heat shock protein HSP 90-alpha (Homo sapiens, UniProt P07900). It is filed as functional, organism-based.
Assay [22] can be described thus: reduction of Shn3 3'UTR-driven luciferase in osteoblasts – cell-based, Clone20 osteoblasts, firefly luciferase, cherry-picked, dose response (AID 624132).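 Note: firefly luciferase luminescence from reporter carrying the Shn3 3'UTR in osteoblasts.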 It is filed as functional.
The nature of assay [23]: Luminescence Cell-Based Dose Confirmation HTS to Identify Inhibitors of Platelet Dense Granule Release. [Related pubchem assays: 1663 (Primary HTS), 1678 (Summary of Project)]. It is filed as functional.
Assay [24] in a line: DRD fibroblast viability loss – cell-based, non-viral oncogenic, luminescence, dose response (AID 1934). It is filed as functional. The note with it: Homo sapiens.
Assay [25] in a line: off-target signal loss in HeLa-CEM21 co-culture – HeLa F-luc CTL cells, cherry-picked, counter-screen for HIV-1 Env fusion inhibitor project, dose response (AID 652040).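 Note: potency for signal decrease marking cytotoxic or nonspecific inhibition.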 It is filed as functional, cell-based.
A short description of assay [26]: blockade of melanocortin 4 receptor signaling – cell-based, plate reader, cherry pick, counter-screen for LGR2 antagonist project, dose response (AID 743444).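 Note: transfected HEK 293 cells stimulated with alpha-MSH peptide; potency of inhibitors of the alpha-MSH evoked signal.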 It counts as functional.
Assay [27] in a line: A549 cell cytotoxicity, dose response, cytotoxicity control, plate reader, cherry-pick, antagonist series (AID 743412). It counts as functional, cell-based.
Assay [28] relates to H4. The experiment in a line: Amyloid Precursor 5' UTR neuroblastoma cell reporter line Measured in Cell-Based System Using Plate Reader - 2078-04_Inhibitor_Dose_DryPowder_Activity. [Related pubchem assays (depositor defined):AID488894]. It is filed as functional. Conditions: Homo sapiens.
Assay [29] concerns Jurkat. The experiment in a line: blockers of NF-kB activation in T cells – Jurkat, luciferase reporter, luminescence, B- and T-cell, dose response (AID 489004).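 Note: NF-kB luciferase reporter Jurkat cells stimulated with PMA plus ionomycin.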 It counts as functional, cell-based. Conditions: Homo sapiens.
Assay [30] can be described thus: HEK-293T viability loss, compound-treated – cell-based, uHTS hits, cytotoxicity control for B/T-cell NF-kB inhibitor project, dose response (AID 489019).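 Note: IC50 reflects cytotoxicity as loss of cell viability.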 It counts as functional.
In assay [31] the target is Aurora kinase A (Homo sapiens, UniProt O14965). It is filed as functional.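 Note: value from the Navigating the Kinome kinase panel profiling, panel entry STK6.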
In assay [32] the target is ALK tyrosine kinase receptor (Homo sapiens, UniProt Q9UM73). It is filed as functional.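 Note: ALK tested as one member of a kinase panel screen.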
For assay [33], the target named is Focal adhesion kinase 1 (Homo sapiens, UniProt Q05397). It counts as functional.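 Note: measured as one member of a kinome panel.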
Assay [34] addresses Aurora kinase B (Homo sapiens, UniProt Q96GD4). It counts as functional.
Assay [35] has as its target Neuropeptides B/W receptor type 1 (Homo sapiens, UniProt P48145). The experiment in a line: human NPBW1 receptor blockade, IC50 – cell-based, fluorescence, dose response, set 6, late-stage follow-up (AID 588583). It is filed as functional.
Assay [36] deals with Melanin-concentrating hormone receptor 1 (Homo sapiens, UniProt Q99705). The experiment in a line: Late-stage fluorescence-based counterscreen for antagonists of the G-protein coupled receptor 7 (GPR7): cell-based dose response assay to identify antagonists of the melanin-concentrating hormone receptor 1 (MCHR1) Set 6. It is filed as functional.
The target in assay [37] is Cyclin-dependent kinase 5/CDK5 activator 1 (Homo sapiens, UniProt Q00535). The experiment in a line: inhibitors of human CDK5 activity – biochemical, microfluidic mobility shift, dry powder, set 2, selectivity assay for GSK3beta inhibitor project, dose response (AID 623979). It counts as functional.
Assay [38] can be described thus: Luminescence Cell-Based Dose Response HTS to Identify Inhibitors of 5'UTR Stem-Loop Driven Prion Protein mRNA Translation in H4 Neuroglioblastoma Cells. [Related pubchem assays: 1827 (Project Summary), 1813 (Primary HTS)]. It is filed as functional.
The target of assay [39] is Glycogen synthase kinase-3 beta (Homo sapiens, UniProt P49841). The experiment in a line: inhibition of human GSK3B activity – biochemical, microfluidics, dry powder samples, set 2, dose response (AID 623989). It is filed as functional.
Assay [40] has as its target Glycogen synthase kinase-3 alpha (Homo sapiens, UniProt P49840). The experiment in a line: GSK3A enzyme blockers, homolog specificity check – biochemical, microfluidics, dry powder samples, set 2, selectivity assay for GSK3beta inhibitor project, dose response (AID 623978). It counts as functional.
Assay [41] can be described thus: luciferase reporter signal suppression in cells – H4 neuroglioma cells, luminescence, dose response (AID 1990). It is filed as functional, cell-based.
Assay [42] can be described thus: alpha-synuclein stem-loop luciferase translation blockers – H4 neuroglioma cells, luminescence, confirmation (AID 1988). It counts as functional, cell-based.

Active and inactive are the calls of the source.

T2 sequence (P08659 whole entry): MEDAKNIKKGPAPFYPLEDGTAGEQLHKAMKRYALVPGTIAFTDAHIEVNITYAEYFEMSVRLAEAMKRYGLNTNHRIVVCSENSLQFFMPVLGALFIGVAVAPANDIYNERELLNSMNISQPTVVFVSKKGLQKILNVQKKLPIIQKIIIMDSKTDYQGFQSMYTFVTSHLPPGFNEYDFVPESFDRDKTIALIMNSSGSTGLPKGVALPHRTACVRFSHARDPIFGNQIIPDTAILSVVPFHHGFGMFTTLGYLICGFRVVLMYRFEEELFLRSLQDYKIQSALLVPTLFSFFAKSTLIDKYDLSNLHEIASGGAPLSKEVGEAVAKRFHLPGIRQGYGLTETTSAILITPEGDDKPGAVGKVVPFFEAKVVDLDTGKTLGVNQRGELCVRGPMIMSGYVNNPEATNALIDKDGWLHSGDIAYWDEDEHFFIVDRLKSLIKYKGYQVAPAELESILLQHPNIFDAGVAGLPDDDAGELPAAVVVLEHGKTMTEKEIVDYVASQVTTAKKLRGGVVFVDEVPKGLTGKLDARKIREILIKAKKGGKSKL
Glycogen synthase kinase-3 alpha, sequence (P49840 whole entry): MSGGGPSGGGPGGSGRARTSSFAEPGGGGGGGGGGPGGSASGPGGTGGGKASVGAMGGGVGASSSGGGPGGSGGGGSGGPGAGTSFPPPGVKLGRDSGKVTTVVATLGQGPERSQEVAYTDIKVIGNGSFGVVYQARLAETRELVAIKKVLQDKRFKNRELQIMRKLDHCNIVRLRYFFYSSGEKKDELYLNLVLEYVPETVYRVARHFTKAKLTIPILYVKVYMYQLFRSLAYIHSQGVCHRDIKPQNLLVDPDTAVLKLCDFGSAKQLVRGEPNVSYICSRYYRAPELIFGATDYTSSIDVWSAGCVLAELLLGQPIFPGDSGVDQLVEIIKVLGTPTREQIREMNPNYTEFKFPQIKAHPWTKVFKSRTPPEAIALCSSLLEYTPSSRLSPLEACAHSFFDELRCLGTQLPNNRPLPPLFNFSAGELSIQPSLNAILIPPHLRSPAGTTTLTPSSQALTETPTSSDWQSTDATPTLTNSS
Aurora kinase B, sequence (Q96GD4 whole entry): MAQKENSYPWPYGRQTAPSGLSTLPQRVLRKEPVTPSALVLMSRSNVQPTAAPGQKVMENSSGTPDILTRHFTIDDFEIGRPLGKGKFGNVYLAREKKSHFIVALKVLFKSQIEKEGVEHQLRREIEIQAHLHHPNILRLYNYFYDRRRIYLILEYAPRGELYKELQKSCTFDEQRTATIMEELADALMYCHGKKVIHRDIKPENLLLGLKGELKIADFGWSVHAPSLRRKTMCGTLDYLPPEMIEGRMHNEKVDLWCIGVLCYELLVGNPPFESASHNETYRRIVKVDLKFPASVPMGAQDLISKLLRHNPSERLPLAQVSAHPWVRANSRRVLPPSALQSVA
Glycogen synthase kinase-3 beta, sequence (P49841 whole entry): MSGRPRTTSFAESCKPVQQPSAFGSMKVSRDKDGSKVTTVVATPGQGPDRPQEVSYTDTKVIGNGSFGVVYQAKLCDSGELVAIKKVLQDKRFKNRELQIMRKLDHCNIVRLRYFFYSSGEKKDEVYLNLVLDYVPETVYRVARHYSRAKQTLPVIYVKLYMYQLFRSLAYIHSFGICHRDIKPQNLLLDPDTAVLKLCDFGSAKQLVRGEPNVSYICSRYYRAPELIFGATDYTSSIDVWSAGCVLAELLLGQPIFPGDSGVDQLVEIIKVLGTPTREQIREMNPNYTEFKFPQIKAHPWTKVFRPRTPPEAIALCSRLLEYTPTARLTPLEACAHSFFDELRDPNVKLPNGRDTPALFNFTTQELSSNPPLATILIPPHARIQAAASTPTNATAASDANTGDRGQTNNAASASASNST
Cyclin-dependent kinase 5/CDK5 activator 1, sequence (Q00535 whole entry): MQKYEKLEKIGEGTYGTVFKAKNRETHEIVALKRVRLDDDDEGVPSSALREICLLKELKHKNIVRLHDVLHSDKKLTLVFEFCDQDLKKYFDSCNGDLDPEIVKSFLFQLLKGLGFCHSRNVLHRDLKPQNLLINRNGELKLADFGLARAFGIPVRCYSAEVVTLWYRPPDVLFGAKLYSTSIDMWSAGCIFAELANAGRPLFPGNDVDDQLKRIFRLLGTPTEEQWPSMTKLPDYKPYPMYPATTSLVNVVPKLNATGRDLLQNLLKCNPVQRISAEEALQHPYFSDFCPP
Cyclin-dependent kinase 5/CDK5 activator 1, sequence (Q15078 whole entry, further chain): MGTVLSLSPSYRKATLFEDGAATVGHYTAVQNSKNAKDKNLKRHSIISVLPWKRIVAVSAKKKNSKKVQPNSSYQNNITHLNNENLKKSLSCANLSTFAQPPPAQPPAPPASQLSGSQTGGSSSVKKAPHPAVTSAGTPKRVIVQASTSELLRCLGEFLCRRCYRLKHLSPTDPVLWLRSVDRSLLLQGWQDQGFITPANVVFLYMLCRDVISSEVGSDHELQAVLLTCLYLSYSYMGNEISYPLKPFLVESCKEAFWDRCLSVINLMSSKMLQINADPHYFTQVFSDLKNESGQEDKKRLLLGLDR
DNA dC->dU-editing enzyme APOBEC-3A, sequence (P31941 whole entry): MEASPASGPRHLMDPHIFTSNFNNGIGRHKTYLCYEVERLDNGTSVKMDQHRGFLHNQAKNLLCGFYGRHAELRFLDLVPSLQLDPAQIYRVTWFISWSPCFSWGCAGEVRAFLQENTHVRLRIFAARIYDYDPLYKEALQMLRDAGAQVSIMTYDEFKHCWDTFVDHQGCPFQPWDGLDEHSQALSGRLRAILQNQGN
Neuropeptides B/W receptor type 1, sequence (P48145 whole entry): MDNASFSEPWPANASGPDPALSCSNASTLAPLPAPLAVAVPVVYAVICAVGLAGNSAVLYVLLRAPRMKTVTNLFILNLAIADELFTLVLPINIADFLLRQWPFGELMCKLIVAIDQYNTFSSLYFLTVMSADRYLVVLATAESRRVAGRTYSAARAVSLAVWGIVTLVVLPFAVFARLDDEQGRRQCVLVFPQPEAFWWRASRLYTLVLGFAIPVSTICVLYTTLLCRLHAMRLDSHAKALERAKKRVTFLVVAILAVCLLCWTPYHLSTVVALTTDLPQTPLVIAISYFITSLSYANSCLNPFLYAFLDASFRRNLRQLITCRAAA
Aurora kinase A, sequence (O14965 whole entry): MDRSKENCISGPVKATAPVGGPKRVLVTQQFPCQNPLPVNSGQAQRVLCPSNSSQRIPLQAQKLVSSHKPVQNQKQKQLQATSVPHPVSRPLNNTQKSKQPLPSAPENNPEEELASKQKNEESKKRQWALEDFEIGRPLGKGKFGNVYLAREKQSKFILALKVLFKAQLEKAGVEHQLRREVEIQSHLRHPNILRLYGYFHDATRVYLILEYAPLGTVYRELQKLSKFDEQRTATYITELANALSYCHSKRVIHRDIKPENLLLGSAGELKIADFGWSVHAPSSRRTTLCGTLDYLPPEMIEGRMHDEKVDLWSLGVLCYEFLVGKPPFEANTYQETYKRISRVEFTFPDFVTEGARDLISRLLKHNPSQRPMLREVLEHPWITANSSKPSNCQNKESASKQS
Melanin-concentrating hormone receptor 1, sequence (Q99705 whole entry): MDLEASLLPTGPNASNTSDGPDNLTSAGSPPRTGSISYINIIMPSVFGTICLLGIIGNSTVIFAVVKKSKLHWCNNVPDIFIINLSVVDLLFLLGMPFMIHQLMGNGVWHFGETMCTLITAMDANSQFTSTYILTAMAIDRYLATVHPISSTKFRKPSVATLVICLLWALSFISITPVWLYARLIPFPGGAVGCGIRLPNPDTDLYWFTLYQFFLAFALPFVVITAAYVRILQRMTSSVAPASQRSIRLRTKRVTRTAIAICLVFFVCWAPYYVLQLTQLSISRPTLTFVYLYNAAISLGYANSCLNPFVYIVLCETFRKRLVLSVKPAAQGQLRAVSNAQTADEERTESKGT
DNA dC->dU-editing enzyme APOBEC-3G, sequence (Q9HC16 whole entry): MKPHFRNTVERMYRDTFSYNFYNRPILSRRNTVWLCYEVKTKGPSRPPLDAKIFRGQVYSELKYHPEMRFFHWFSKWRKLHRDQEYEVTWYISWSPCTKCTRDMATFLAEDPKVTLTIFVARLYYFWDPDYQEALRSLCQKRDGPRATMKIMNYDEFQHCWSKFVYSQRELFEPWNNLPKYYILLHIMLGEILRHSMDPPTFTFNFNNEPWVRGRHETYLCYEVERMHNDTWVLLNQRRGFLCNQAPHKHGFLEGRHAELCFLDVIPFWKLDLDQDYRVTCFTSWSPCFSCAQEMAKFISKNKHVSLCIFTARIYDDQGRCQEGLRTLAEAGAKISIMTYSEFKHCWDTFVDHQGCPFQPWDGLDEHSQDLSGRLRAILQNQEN

Consider `O=C(c1cccc(C(F)(F)F)c1)C1CCCN(Cc2cccn2-c2ncccn2)C1` (configuration not stated), for which the concentration for a half-maximal effect (EC50) in [1] is 6690 nM (active).
In the case of `Cc1ccc(-c2csc3nnc(SCCOc4ccccc4)n23)cc1`, the IC50 in assay [2] and in assay [3] was > 99000 nM (inactive) in each case.
Turning to `COc1cc(SC)ccc1C(=O)Nc1nc2ccccc2[nH]1`, the half-maximal activity concentration (AC50) in [4] is 1120 nM (active); in [6], 3350 nM (active); in [7], 14500 nM (active); in assay [8], < 68 nM (active); in [9], 9.03 nM (active); in [11] it was 28500 nM (active). The AC50 in assay [12] was 28 nM (active); in assay [14] it was 260 nM (active); in assay [15], 885 nM (active); in [16] it was 319 nM (active); in [18] it was 1280 nM (active); in assay [19] it was 1980 nM (active). Further, the half-maximal activity concentration (AC50) is 1420 nM (active) in assay [21]; < 260 nM (active) in [22]; 513 nM (active) in [25]; < 68 nM (active) in [26]; 2520 nM (active) in assay [27]; < 0.015 nM (active) in assay [28]. The EC50 in assay [5] was 2260 nM (active); in [10] it was 1260 nM (active); in [13], 1020 nM (active); in assay [17], 152 nM (active); in [20], > 133000 nM (inactive); in [23], 240 nM (active). Also, the concentration giving a half-maximal response (EC50) in assay [24] was 930 nM (active). Moreover, the IC50 in assay [29] is < 160 nM (active); in [30], > 80000 nM (inactive).
On to `Cc1cc(N2CCOCC2)cc2[nH]c(-c3c(NCC(O)c4ccccc4)cc[nH]c3=O)nc12` (configuration not stated), for which the inhibition constant Ki in assay [31] is 251 nM (active); in assay [32], 79.4 nM (active); in [33], 31.6 nM (active); in assay [34], 50.1 nM (active).
For the compound `COc1ccc(Oc2c(Cl)cnn(CC(=O)Nc3ccccc3-c3ccccc3)c2=O)cc1`, the IC50 in assay [35] and in assay [36] was 1140 nM (active) throughout.
Turning to `CCOc1cccc(-c2c(C(=O)N/N=C/c3sccc3C)nnn2-c2nonc2N)c1`, the results for the half-maximal activity concentration (AC50) in [37], in assay [39] and in [40] were 4070 nM (active), 197 nM (active) and 474 nM (active), respectively. The EC50 is 15600 nM (active) in [38], > 120000 nM (not active) in assay [41] and 82200 nM (active) in [42].
